# From the METLIN SMRT retention time set (Domingo-Almenara et al. 2019)
# Assay: gradient 5% acetonitrile 3 min, to 50% in 2 min, to 85% in 15 min, held 3 min, 100 µL/min
# Conditions: column: Zorbax Extend-C18 2.1 x 50 mm; eluents: water / acetonitrile, 0.1% formic acid
# Summary of the method: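 Using water and acetonitrile that each contained 0.1% formic acid, mixtures of ~100 pure standards were separated at 100 μL/min on a Zorbax Extend-C18 column (2.1 × 50 mm, 1.8 μm). The HPLC fed a quadrupole time-of-flight mass spectrometer working in positive and negative ionization mode, with dead and dwell volumes of 40 μL and 900 μL. Data were acquired over 3 months. Retention time was read from computationally picked adduct peaks after manual inspection of each.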
row,RP-LC retention time [s],SMILES
1,754,COc1ccccc1N1CCN(C(=O)CC(C)S(=O)(=O)c2ccc3c(c2)CCN3C(C)=O)CC1 (stereo unspecified)
2,616,Cc1cc(C(=O)NCC2CCCO2)c2cccc(C)c2n1 (stereo unspecified)
3,638,COc1ccc(-c2nc(C)cc(C)c2CNC(=O)C2CCCC2)cc1
4,787,CC(C)Cc1ccc(S(=O)(=O)N2CC(c3nc(-c4ccncc4)nn3C)C2)cc1
5,805,COc1ccc2[nH]c(=O)c(CCC(=O)NCc3cccs3)cc2c1
6,901,COc1ccc(S(=O)(=O)N2CCCC(C(=O)NC3CCCC3)C2)cc1C (stereo unspecified)
7,864,C[C@H]1CN(C(=O)c2nn(C)c3ccccc23)C[C@@H]1c1nc(-c2ccncc2)no1
8,628,Cc1oc2c(c1C(=O)Nc1ccccc1Br)C1=NCCN1C=N2
9,849,Cc1cc(=O)n(CC(=O)Nc2cc(F)ccc2F)c(N2CCc3ccccc3C2)n1
10,742,COc1ccc(N2CCn3c(SCC(=O)Nc4nc5ccccc5s4)nnc32)cc1
11,768,O=C(Cc1nnc(-c2ccc3ncccc3c2)o1)Nc1cccc(Cl)c1
12,986,Cc1ccc(C(=O)Nc2ccc3c(c2)Sc2ncccc2C(=O)N3C(C)C)cc1F
13,642,CCOC(=O)CNC(=O)N1CCC(n2c(-c3ccc(C)cc3)nc3cccnc32)C1 (stereo unspecified)
14,625,Cc1nn(-c2ccc(F)cc2)c(C)c1S(=O)(=O)N1CCC(C(=O)N2CCN(C)CC2)CC1
15,1050,CCC(C(=O)Nc1ccc(-c2nc(Cn3nc(C)cc3C)c(C)o2)cc1)c1ccccc1 (stereo unspecified)
16,882,COc1ccc(Cl)cc1NC(=O)N1CCC2(CC1)N=C(c1cccc(F)c1)C(=O)N2
17,979,O=C(C1CC=CCC1)N1CCCC(COCc2ccccc2)C1 (stereo unspecified)
18,802,CC(C)NC(=O)Cn1c(=O)c2cnc(-c3ccccc3)nc2n(C)c1=O
19,1050,Cc1cc(C)c(NC(=O)Cn2cnc3c(sc4nc(-c5ccccc5)ccc43)c2=O)c(C)c1
20,945,CN(Cc1ccccc1)C(=O)CN1C(=O)C(C(=O)N2CCCCCC2)Sc2ccccc21 (stereo unspecified)
21,674,Cc1nnc2cc(N3CCN(S(=O)(=O)c4ccccc4F)CC3)cnn12
22,583,O=C(NCCc1ccccn1)C1CCCN(c2nnc3ccc(C(F)(F)F)cn23)C1 (stereo unspecified)
23,674,CCNc1cc(N2CCCC(CCC(=O)Nc3ccc4c(c3)OCCO4)C2)ncn1 (stereo unspecified)
24,615,O=C(C1CCCN(c2ncnc3c2nc2n3CCCCC2)C1)N1CCN(Cc2ccccc2)CC1 (stereo unspecified)
25,679,COCCNC(=O)c1sc2ncn(CC(=O)N3CCCCC3C)c(=O)c2c1C (stereo unspecified)
26,722,COC(=O)c1ccccc1C(=O)N(Cc1cccnc1)c1nc2ccc(F)cc2s1

row,RP-LC retention time [s],SMILES
1,621,COc1cccc(CNC(=O)c2ccc3ncnc(N4CCCC4)c3c2)c1
2,950,CCc1ccccc1S(=O)(=O)N1CCC(C(=O)NCc2csc(-c3cccs3)n2)CC1
3,893,CCOC(=O)c1ccc(NC(=O)Cn2c(=O)n(-c3ccc(F)cc3)c(=O)c3c2cc(C)n3C)cc1
4,735,CCS(=O)(=O)c1ccc(C(=O)Nc2nnc(Cc3ccc(Cl)s3)o2)cc1
5,1060,COc1ccc(-c2noc(CCCC(=O)Nc3nc(-c4ccccc4)cs3)n2)cc1
6,789,Cc1ccc(-n2nc3c(N4CCCC(C(=O)NCc5ccc(Cl)cc5)C4)nnc(C)c3c2C)cc1 (stereo unspecified)
7,646,CC(C)CN1CCn2cc(C(=O)NCc3ccc(F)cc3Cl)nc2C1
8,835,CCc1ccc(NC(=O)C2CCCN2S(=O)(=O)c2ccc3c(c2)CCCC(=O)N3)cc1 (stereo unspecified)
9,680,COc1ccc(CNC(=O)N2CC(c3nc(C)no3)C3(CCOCC3)C2)cc1 (stereo unspecified)
10,878,O=C1CC[C@]2(C(=O)N3CCCCC3)CCCC[C@H]2N1CCc1ccccc1
11,529,COCCCNC(=O)C1CCCN(c2nnc3ccccn23)C1 (stereo unspecified)
12,579,Cn1nc2n(c1=O)CCC(NS(=O)(=O)c1cccnc1)CC2 (stereo unspecified)
13,684,Cc1ccc(CNC(=O)c2ccc3ncnc(N4CCCC4)c3c2)cc1C
14,759,CCCCc1ccc(NC(=O)Cn2cnc3nc(N4CCCC(C(=O)NC)C4)sc3c2=O)cc1 (stereo unspecified)
15,992,CCn1c(=O)c2ccccc2n(Cc2nc(-c3cccc(OC)c3)no2)c1=O
16,794,CC(C(=O)N1CCN(c2ncccn2)CC1)n1c2ccccc2c2cnn(C)c(=O)c21 (stereo unspecified)
17,742,COc1ccc(-c2nc3sc(C(=O)N(C)C)c(C)n3c2NC(C)(C)C)cc1
18,615,CC1CCN(CCCNC(=O)C(=O)Nc2ccc3nc4n(c(=O)c3c2)CCCCC4)CC1
19,1040,CN(Cc1ccccc1)C(=O)c1nnc(-c2ccc(S(=O)(=O)N3CCCCC3)cc2)o1
20,753,CCc1ccc(NC(=O)C2CCCN(S(=O)(=O)c3cn(CC)cn3)C2)cc1 (stereo unspecified)
21,885,O=C(Cn1nc(S(=O)(=O)c2cccc(F)c2)ccc1=O)N1CCN(c2ccccc2F)CC1
22,849,CS(=O)(=O)c1ccc2nc(NC(=O)c3csc(-n4cccc4)n3)sc2c1
23,952,COC(=O)c1c(NCCN2CCCc3ccccc32)c2cc(F)ccc2[nH]c1=O
24,908,CCN1C(=O)c2cc(NC(=O)c3ccc(Br)o3)ccc2Oc2ccccc21
25,781,Cc1cccc(NC(=O)C2CCN(S(=O)(=O)c3cn(C(C)C)cn3)CC2)c1

# Continued, compound first:
row,SMILES,RP-LC retention time [s]
1,Cn1cc(C(=O)N2CC(Oc3ccc(-c4nc(-c5ccccc5)no4)cc3)C2)cn1,941
2,COc1cc([C@@H]2c3cc4c(cc3[C@H](O)C3COC(=O)[C@@H]32)OCO4)cc(OC)c1OC (stereo partly specified),811
3,Cc1ccsc1C(=O)NCC1CN(C(C)C)CC12CCCCC2 (stereo unspecified),652
4,O=C(c1ccco1)N1CCN=C1N1CCN(c2cccc(Cl)c2)CC1,696
5,COc1ccc(S(=O)(=O)c2ccc(NCc3cccc(OC)c3)nn2)cc1,860
6,O=C(Nc1ccc([N+](=O)[O-])cc1O)Nc1ccccc1Br,914
7,Cc1ccc(-c2nnc(-c3nn(C)c4c3CN(S(=O)(=O)c3c(C)cc(C)cc3C)CC4)o2)cc1,1160
8,CCN1CCN(C(=O)Cc2csc(-n3nc(C)c(Cl)c3C)n2)CC1,691
9,COc1cccc(-c2cc3c(=O)n(Cc4nc(-c5ccc(Cl)cc5)no4)ccn3n2)c1,1120
10,COc1cc(C)c(C)cc1S(=O)(=O)Nc1ccc(Cl)c(N2CCCS2(=O)=O)c1,1080
11,CCCN(CC1CCOC1)S(=O)(=O)Cc1ccccc1Cl (stereo unspecified),930
12,N#C/C(=C\c1c[nH]c2ccccc12)C(N)=O,713
13,Cc1ccc(-n2ccc(=O)c(-c3nc(-c4ccccc4C)no3)n2)cc1,987
14,CCOc1ccc(-c2cc3c(=O)n(Cc4nc(-c5ccc(F)c(Cl)c5)no4)ncn3n2)cc1,982
15,CC(=O)N1CCc2cc(C)c(S(=O)(=O)N3CCN(C)CC3)cc21,585
16,Cc1ccc(N2C(=O)N(CC(=O)N3CCC(C)CC3)C3CS(=O)(=O)CC32)cc1Cl (stereo unspecified),879
17,Cc1ccc(CNS(=O)(=O)c2cc(-c3nc(C(C)(C)C)cs3)cs2)cc1C,1350
18,OC[C@H]1O[C@@H](n2cnc3c(NC4CCCCC4)ncnc32)C(O)[C@H]1O (stereo partly specified),583

row,SMILES,RP-LC retention time [s]
1,Cc1ccc2c(Nc3cccc(C)c3C)c(-c3nc(C)no3)cnc2n1,797
2,COCCN1CCC2(CC1)CN(Cc1cc(OC)cc(OC)c1)Cc1ccccc1O2,560
3,CCNS(=O)(=O)c1cccnc1Nc1cccc(Cl)c1,1030
4,O=C(Cc1nnc(-c2cnccn2)o1)Nc1ccc(Cl)cc1Cl,753
5,Fc1ccccc1N1CCN(c2ncccc2-c2nnc(-c3ccccc3)o2)CC1,1150
6,COc1ccc(N2C(=O)CC(c3ccc(OC)c(OC)c3)CC2=O)cc1Cl,845
7,O=C(Cc1ccsc1)Nc1cnc(-c2ccccc2)nc1,890
8,Nc1nc(SCc2ccccc2Cl)c2[nH]cnc2n1,680
9,O=C(NCc1cccc(C(F)(F)F)c1)c1cnc(-c2ccccc2)nc1-c1ccncc1,934
10,CN1C[C@H](C(=O)N[C@]2(C)O[C@@]3(O)[C@@H]4CCCN4C(=O)[C@H](Cc4ccccc4)N3C2=O)CC2c3cccc4[nH]cc(c34)C[C@H]21 (stereo partly specified),683
11,C=CCc1ccccc1OCCn1c(CN(C)C(=O)c2ccco2)nc2ccccc21,702
12,CCCn1cc(S(=O)(=O)NCc2cccs2)c2cccnc21,833
13,O=C(Nc1c(-c2ccccc2)nc2ccccn12)c1cc(Br)ccc1Cl,717
14,Cc1c(C(=O)N2CCN(C(C)C)CC2)cnn1-c1cc(-c2nc(C(C)(C)C)no2)ccn1,685
15,O=C(Nc1c(-c2ccccc2)nc2ccccn12)c1ccc2ccccc2c1,720
16,Cn1nc(-c2nnc(-c3ccccc3Cl)o2)c2c1CCN(C(=O)COc1ccc(F)cc1)C2,891
17,Fc1ccc(-c2nnc(Cc3nc(-c4cccs4)no3)o2)cc1,926
